assay: recombinant barcode read abundance after kanamycin selection (control-corrected) (log10(CPM+1)); higher = more efficient recombination; sequences stand for … in AGTGCAGAGAAAATCGGCCAGTTTTCTCTGCCTGCAGTCCGCATGCCGT…AGATTTATGCAGCGGACTGCCTTTCTCCCAAAGTGATAAACCGGACAGTATCATGGACCGGTTTTCCCGGTAATCCGTATTTGCAAGGTTGGTTTCACT; site = the 11-nt target
Outline: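 Oligos holding a promoter, target, barcode and the J23119-driven first 104 bases of the bridge RNA were Gibson-cloned into a vector that supplied the other 73 bp plus a T7-inducible recombinase. This library was co-electroporated with a donor plasmid into E. coli. Two replicates went on chloramphenicol/ampicillin LB agar (control) and two on chloramphenicol/ampicillin/kanamycin with 0.1 mM IPTG. Recombination efficiency is read from averaged, control-corrected barcode counts per million at recombinant junctions, reported as log10(CPM+1).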
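Further: IS621 recombinase and bridge RNA in Escherichia coli cells.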

| Sequence | recombinant barcode read abundance (log10) |
| --- | --- |
| TGGCCCTCTTGGGTTCTAACCTGTTGCTC (site TGGCCCTCTGA) | 1.79 |
| TGGCCCTCTTGGGTTCTAACCTGTTGCTC (site TGGCCCTCTTA) | 0.0751 |
| TGGCGTACTTGGGTTCTAACCTGTTGCCT (site TGGAGTACTAG) | 0 |
| TGGCGTACTTGGGTTCTAACCTGTTGCCT (site TGGCGTACTAG) | 0.229 |
| TGGCGTACTTGGGTTCTAACCTGTTGCCT (site TGGGGTACTAG) | 0.0637 |
| TGGCGTACTTGGGTTCTAACCTGTTGCCT (site TGGTGTACTAG) | 0.149 |
| TGGCTAGCTTGGGTTCTAACCTGTTGCCT (site TGACTAGCTAG) | 0.052 |
| TGGCTAGCTTGGGTTCTAACCTGTTGCCT (site TGCCTAGCTAG) | 0.0442 |
| TGGCTAGCTTGGGTTCTAACCTGTTGCCT (site TGGCTAGCTAG) | 0.242 |
| TGGCTAGCTTGGGTTCTAACCTGTTGCCT (site TGTCTAGCTAG) | 0.0845 |
| TGGGACCCTTGGGTTCTAACCTGTTGCAT (site TGCGACCCTAA) | 0.261 |
| TGGGACCCTTGGGTTCTAACCTGTTGCAT (site TGGGACCCTAT) | 1.25 |
| TGGGCGGCTTGGGTTCTAACCTGTTGCCT (site TAGGTGGCTAG) | 0.133 |
| TGGGCGGCTTGGGTTCTAACCTGTTGCCT (site TGGGCGGCTAG) | 0.411 |
| TGGGGCCCTTGGGTTCTAACCTGTTGCCG (site GCAATTACTAA) | 0.09 |
| TGGGGCCCTTGGGTTCTAACCTGTTGCCG (site TGGGGCCCTCG) | 1.9 |
| TGGGTGACTTGGGTTCTAACCTGTTGCCT (site GCCTGCCCTCA) | 0.422 |
| TGGGTGACTTGGGTTCTAACCTGTTGCCT (site TGGGTGACTAG) | 0.057 |
| TGGTAACCTTGGGTTCTAACCTGTTGCCT (site AGGTAACCTAG) | 0.0194 |
| TGGTAACCTTGGGTTCTAACCTGTTGCCT (site CGGTAACCTAG) | 0.172 |
| TGGTAACCTTGGGTTCTAACCTGTTGCCT (site GGGTAACCTAG) | 0.148 |
| TGGTAACCTTGGGTTCTAACCTGTTGCCT (site TGGTAACCTAG) | 0.571 |

| Sequence | recombinant barcode read abundance (log10) |
| --- | --- |
| TGGTATGCTTGGGTTCTAACCTGTTGCCT (site TGGTATACTAG) | 0.5 |
| TGGTATGCTTGGGTTCTAACCTGTTGCCT (site TGGTATCCTAG) | 0.0685 |
| TGGTATGCTTGGGTTCTAACCTGTTGCCT (site TGGTATGCTAG) | 1.39 |
| TGGTATGCTTGGGTTCTAACCTGTTGCCT (site TGGTATTCTAG) | 0 |
| TGGTCTACTTGGGTTCTAACCTGTTGCTT (site TGATCTACTAA) | 0 |
| TGGTCTACTTGGGTTCTAACCTGTTGCTT (site TGCTCTACTAA) | 0.0743 |
| TGGTCTACTTGGGTTCTAACCTGTTGCTT (site TGGTCTACTAA) | 0.154 |
| TGGTCTACTTGGGTTCTAACCTGTTGCTT (site TGTTCTACTAA) | 0.0113 |
| TGGTTCGCTTGGGTTCTAACCTGTTGCCT (site TGGTACGCTAG) | 0.0339 |
| TGGTTCGCTTGGGTTCTAACCTGTTGCCT (site TGGTCCGCTAG) | 0.0365 |
| TGGTTCGCTTGGGTTCTAACCTGTTGCCT (site TGGTGCGCTAG) | 0.0185 |
| TGGTTCGCTTGGGTTCTAACCTGTTGCCT (site TGGTTCGCTAG) | 1.43 |
| TGTAATACTTGGGTTCTAACCTGTTGCCT (site TGTAATACTAG) | 0.0354 |
| TGTAATACTTGGGTTCTAACCTGTTGCCT (site TGTAATCCTAG) | 0.0997 |
| TGTAATACTTGGGTTCTAACCTGTTGCCT (site TGTAATGCTAG) | 0.147 |
| TGTAATACTTGGGTTCTAACCTGTTGCCT (site TGTAATTCTAG) | 0.121 |
| TGTACCTCTTGGGTTCTAACCTGTTGCCT (site TGTACCTCTAG) | 0.522 |
| TGTACCTCTTGGGTTCTAACCTGTTGCCT (site TGTCCCTCTAG) | 0.00782 |
| TGTACCTCTTGGGTTCTAACCTGTTGCCT (site TGTGCCTCTAG) | 0.0235 |
| TGTACCTCTTGGGTTCTAACCTGTTGCCT (site TGTTCCTCTAG) | 0.0524 |
| TGTACGCCTTGGGTTCTAACCTGTTGCCT (site GAGGTAACTGT) | 0.0511 |
| TGTACGCCTTGGGTTCTAACCTGTTGCCT (site TGTACGCCTAG) | 0.0173 |

| Sequence | recombinant barcode read abundance (log10) |
| --- | --- |
| TGTAGGACTTGGGTTCTAACCTGTTGCCT (site AGTAGGACTAG) | 0.0549 |
| TGTAGGACTTGGGTTCTAACCTGTTGCCT (site CGTAGGACTAG) | 0.142 |
| TGTAGGACTTGGGTTCTAACCTGTTGCCT (site GGTAGGACTAG) | 0.0264 |
| TGTAGGACTTGGGTTCTAACCTGTTGCCT (site TGTAGGACTAG) | 0.553 |
| TGTAGTCCTTGGGTTCTAACCTGTTGCGT (site TGTAGTCCTAA) | 0.062 |
| TGTAGTCCTTGGGTTCTAACCTGTTGCGT (site TGTAGTCCTAC) | 1.19 |
| TGTAGTCCTTGGGTTCTAACCTGTTGCGT (site TGTAGTCCTAG) | 0.293 |
| TGTAGTCCTTGGGTTCTAACCTGTTGCGT (site TGTAGTCCTAT) | 0.0925 |
| TGTCCCGCTTGGGTTCTAACCTGTTGCCT (site TGTATCGCTAG) | 0.0575 |
| TGTCCCGCTTGGGTTCTAACCTGTTGCCT (site TGTCCCGCTAG) | 0.708 |
| TGTCCCTCTTGGGTTCTAACCTGTTGCCT (site TGTACCTCTAG) | 0.014 |
| TGTCCCTCTTGGGTTCTAACCTGTTGCCT (site TGTCCCTCTAG) | 0.769 |
| TGTCCCTCTTGGGTTCTAACCTGTTGCCT (site TGTGCCTCTAG) | 0.111 |
| TGTCCCTCTTGGGTTCTAACCTGTTGCCT (site TGTTCCTCTAG) | 0.0962 |
| TGTCGACCTTGGGTTCTAACCTGTTGCCT (site AGTCGACCTAG) | 0.596 |
| TGTCGACCTTGGGTTCTAACCTGTTGCCT (site CGTCGACCTAG) | 0.113 |
| TGTCGACCTTGGGTTCTAACCTGTTGCCT (site GGTCGACCTAG) | 0.0191 |
| TGTCGACCTTGGGTTCTAACCTGTTGCCT (site TGTCGACCTAG) | 0.709 |
| TGTCGGACTTGGGTTCTAACCTGTTGCAG (site TGTCGGACTAT) | 0.197 |
| TGTCGGACTTGGGTTCTAACCTGTTGCAG (site TGTCGGACTCT) | 1.01 |
| TGTCGGACTTGGGTTCTAACCTGTTGCAG (site TGTCGGACTGT) | 0.127 |
| TGTCGGACTTGGGTTCTAACCTGTTGCAG (site TGTCGGACTTT) | 0.041 |
